Measurements reported in ChEMBL document CHEMBL4699582, “Discovery of OATD-01, a First-in-Class Chitinase Inhibitor as Potential New Therapeutics for Idiopathic Pulmonary Fibrosis” (J Med Chem, 2020).

Assays:
[1] = biological target: Voltage-gated inwardly rectifying potassium channel KCNH2 (Homo sapiens, UniProt Q12809); assay: Inhibition of tracer red binding to human ERG expressed in HEK293 cell membranes measured after 2 to 6 hrs by fluorescence polarization assay
[2] = biological target: Acidic mammalian chitinase (Homo sapiens, UniProt Q9BZP6); assay: Inhibition of full-length C-terminal his-tagged human AMCase expressed in CHO-K1 cells assessed as reduction in chitinolytic activity using 4-methylumbelliferyl-beta-D-N,N-diacetylchitobioside hydrate as substrate after 60 mins by fluorometric assay; assay type: cell-based
[3] = biological target: Acidic mammalian chitinase (Mus musculus, UniProt Q91XA9); assay: Inhibition of full-length C-terminal his-tagged mouse AMCase expressed in expressed in CHO-K1 cells assessed as reduction in chitinolytic activity using 4-methylumbelliferyl-beta-D-N,N'-diacetylchitobioside hydrate as substrate after 60 mins by fluorometric assay; assay type: cell-based
Chitotriosidase-1 [4] = biological target: Chitotriosidase-1 (Mus musculus, UniProt Q9D7Q1); assay: biochemical
Description: Inhibition of recombinant full-length C-terminal his-tagged mouse CHIT1 expressed in CHO-K1 cells assessed as reduction in chitinolytic activity using 4-methylumbelliferyl-beta-D-N,N',N"-triacetylchitotrioside as substrate after 60 mins by fluorometric assay

Chitotriosidase-1 [5] = biological target: Chitotriosidase-1 (Homo sapiens, UniProt Q13231); assay type: cell-based; conditions: hek293f
Chitotriosidase-1 (Homo sapiens, UniProt Q13231), sequence (Q13231 whole entry): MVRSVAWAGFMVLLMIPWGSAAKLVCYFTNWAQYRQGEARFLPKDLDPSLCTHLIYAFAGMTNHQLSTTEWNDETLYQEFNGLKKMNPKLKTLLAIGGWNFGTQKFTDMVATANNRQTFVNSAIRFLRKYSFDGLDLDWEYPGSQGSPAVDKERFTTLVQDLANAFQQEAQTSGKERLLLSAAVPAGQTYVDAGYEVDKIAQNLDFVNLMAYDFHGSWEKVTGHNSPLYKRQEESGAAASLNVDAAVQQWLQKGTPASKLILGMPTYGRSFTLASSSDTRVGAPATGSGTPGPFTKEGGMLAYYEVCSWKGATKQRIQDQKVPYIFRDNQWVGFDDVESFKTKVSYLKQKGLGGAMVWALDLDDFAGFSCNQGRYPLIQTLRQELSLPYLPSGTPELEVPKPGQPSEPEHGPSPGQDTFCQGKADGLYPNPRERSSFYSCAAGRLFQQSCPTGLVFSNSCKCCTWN

Acidic mammalian chitinase (Mus musculus, UniProt Q91XA9), sequence (Q91XA9 whole entry): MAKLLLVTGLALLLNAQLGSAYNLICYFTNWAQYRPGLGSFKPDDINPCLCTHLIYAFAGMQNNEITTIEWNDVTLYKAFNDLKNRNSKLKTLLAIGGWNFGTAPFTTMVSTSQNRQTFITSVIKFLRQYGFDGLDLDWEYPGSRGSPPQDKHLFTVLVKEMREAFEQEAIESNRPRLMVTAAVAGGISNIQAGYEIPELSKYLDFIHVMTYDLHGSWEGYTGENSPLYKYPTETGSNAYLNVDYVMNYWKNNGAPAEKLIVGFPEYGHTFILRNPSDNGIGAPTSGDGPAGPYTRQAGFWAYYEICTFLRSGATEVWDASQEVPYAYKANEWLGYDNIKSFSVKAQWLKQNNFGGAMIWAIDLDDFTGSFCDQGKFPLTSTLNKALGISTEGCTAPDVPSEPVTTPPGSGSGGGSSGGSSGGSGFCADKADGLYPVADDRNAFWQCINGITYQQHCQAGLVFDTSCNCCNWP
Chitotriosidase-1 (Mus musculus, UniProt Q9D7Q1), sequence (Q9D7Q1 whole entry): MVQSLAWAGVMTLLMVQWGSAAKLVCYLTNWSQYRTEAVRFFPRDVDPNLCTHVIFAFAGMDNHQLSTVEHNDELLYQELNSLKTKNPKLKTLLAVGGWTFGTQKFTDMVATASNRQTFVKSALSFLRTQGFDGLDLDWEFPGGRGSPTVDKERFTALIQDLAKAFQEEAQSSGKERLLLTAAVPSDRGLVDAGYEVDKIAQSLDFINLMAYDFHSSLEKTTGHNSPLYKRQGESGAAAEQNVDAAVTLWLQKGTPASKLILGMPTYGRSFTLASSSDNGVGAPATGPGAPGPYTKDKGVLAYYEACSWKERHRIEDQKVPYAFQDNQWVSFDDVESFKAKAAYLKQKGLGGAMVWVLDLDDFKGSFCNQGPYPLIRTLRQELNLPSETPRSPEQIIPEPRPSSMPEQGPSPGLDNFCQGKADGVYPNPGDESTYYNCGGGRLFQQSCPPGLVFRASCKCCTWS
Voltage-gated inwardly rectifying potassium channel KCNH2, sequence (Q12809 whole entry): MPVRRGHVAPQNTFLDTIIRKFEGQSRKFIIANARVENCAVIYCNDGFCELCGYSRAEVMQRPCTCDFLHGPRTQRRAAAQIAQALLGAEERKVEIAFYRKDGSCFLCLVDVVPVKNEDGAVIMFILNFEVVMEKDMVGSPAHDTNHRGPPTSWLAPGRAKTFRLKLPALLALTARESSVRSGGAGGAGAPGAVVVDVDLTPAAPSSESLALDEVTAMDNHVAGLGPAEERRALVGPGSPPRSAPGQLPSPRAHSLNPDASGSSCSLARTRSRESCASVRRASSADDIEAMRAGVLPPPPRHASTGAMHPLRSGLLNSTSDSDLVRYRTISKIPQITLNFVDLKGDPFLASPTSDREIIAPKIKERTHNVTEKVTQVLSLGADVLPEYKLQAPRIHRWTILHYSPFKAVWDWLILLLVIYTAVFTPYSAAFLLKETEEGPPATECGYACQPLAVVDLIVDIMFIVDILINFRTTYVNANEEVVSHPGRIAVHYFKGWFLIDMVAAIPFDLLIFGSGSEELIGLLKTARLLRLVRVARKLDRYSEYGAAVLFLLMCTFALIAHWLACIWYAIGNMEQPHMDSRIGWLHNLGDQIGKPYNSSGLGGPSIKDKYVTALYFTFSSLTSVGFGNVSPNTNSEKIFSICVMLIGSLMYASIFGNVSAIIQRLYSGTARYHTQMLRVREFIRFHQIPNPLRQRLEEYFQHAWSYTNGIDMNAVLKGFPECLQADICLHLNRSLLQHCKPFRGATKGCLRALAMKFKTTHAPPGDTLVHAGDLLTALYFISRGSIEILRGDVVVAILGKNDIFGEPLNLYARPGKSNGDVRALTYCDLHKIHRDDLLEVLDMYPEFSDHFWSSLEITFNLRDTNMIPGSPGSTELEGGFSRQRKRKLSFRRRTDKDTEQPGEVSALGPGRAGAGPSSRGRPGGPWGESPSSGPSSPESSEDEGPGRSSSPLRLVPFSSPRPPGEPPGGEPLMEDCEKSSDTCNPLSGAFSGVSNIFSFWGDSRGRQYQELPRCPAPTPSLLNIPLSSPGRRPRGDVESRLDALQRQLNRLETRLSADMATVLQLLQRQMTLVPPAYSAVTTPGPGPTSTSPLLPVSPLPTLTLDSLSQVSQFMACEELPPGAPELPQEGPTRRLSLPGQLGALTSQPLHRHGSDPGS
Acidic mammalian chitinase (Homo sapiens, UniProt Q9BZP6), sequence (Q9BZP6 whole entry): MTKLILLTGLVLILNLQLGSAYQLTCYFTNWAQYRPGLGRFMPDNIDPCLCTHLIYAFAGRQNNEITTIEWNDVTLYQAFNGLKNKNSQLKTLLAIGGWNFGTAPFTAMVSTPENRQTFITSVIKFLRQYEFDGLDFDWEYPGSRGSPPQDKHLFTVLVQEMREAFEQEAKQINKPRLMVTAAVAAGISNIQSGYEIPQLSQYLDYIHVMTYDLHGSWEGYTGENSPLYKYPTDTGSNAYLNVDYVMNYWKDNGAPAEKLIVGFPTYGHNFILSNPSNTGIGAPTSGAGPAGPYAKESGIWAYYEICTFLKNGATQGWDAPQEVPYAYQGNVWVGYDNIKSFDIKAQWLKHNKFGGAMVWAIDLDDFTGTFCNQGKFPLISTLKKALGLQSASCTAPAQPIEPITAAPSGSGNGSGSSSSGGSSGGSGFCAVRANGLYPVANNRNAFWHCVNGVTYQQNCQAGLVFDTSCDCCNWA

IC50 [2] [nM] | IC50 [3] [nM] | IC50 (Chitotriosidase-1 [4]) [nM] | IC50 (Chitotriosidase-1 [5]) | SMILES | IC50 [1] [nM] | IC50 ([1]; hek293)
84 |  |  |  | CC(C)CN1C[C@H](Cc2ccc(Cl)cc2)N(C2CCN(c3n[nH]c(N)n3)CC2)C[C@@H]1C | 2400 | 
 |  |  |  | CN1CCN(C2CCN(c3nnc(N)[nH]3)CC2)[C@@H](Cc2ccc(Cl)cc2)C1 |  | Not Active
 | 59 | 137 |  | Nc1nnc(N2CCC(N3Cc4ccccc4OC[C@@H]3Cc3ccc(Cl)cc3)CC2)[nH]1 | 22000 | 
 | 1000 | 7200 |  | C[C@@H]1CN(C2CCN(c3nnc(N)[nH]3)CC2)[C@@H](Cc2ccc(Cl)cc2)CO1 |  | 
 | 7.8 | 49 |  | CNC(=O)[C@H]1CN(C2CCN(c3nc(N)n[nH]3)CC2)[C@@H](Cc2ccc(Cl)cc2)CO1 |  | Not Active
 | 7.7 | 30 |  | COC[C@H]1CN(C2CCN(c3nc(N)n[nH]3)CC2)[C@@H](Cc2ccc(Cl)cc2)CO1 | 100000 | 
 | 1 | 15 |  | CC(C)C[C@H]1CN(C2CCN(c3nnc(N)[nH]3)CC2)[C@@H](Cc2ccc(Cl)cc2)CO1 | 8500 | 
 | 660 | 5300 |  | Nc1n[nH]c(N2CCC(N3CC(=O)NC[C@@H]3Cc3ccc(Cl)cc3)CC2)n1 | 80000 | 
 | 22000 | 27000 | Not Active | Nc1n[nH]c(N2CCC(N3CCNC(=O)[C@@H]3Cc3ccc(Cl)cc3)CC2)n1 |  | 
 | 5.5 | 29 |  | CC(C)(O)[C@H]1CN(C2CCN(c3nc(N)n[nH]3)CC2)[C@@H](Cc2ccc(Cl)cc2)CO1 |  | Not Active
 | 1.3 |  |  | CC[C@H]1CN(C2CCN(c3nc(N)n[nH]3)CC2)[C@@H](Cc2ccc(Cl)cc2)CO1 | 33000 | 
 | 6.7 | 25 |  | Nc1nnc(N2CCC(N3C[C@H](CO)OC[C@@H]3Cc3ccc(Cl)cc3)CC2)[nH]1 | 72000 | 
 | 3000 | 1700 |  | Nc1nnc(N2CCC(N3CCS(=O)(=O)C[C@@H]3Cc3ccc(Cl)cc3)CC2)[nH]1 |  | 
 | 2.1 | 19 |  | CC(C)[C@H]1CN(C2CCN(c3nc(N)n[nH]3)CC2)[C@@H](Cc2ccc(Cl)cc2)CO1 | 34000 | 
